Assay results: patent US4401604A, “Process for preparing thiosulfenamide derivatives of N-phosphonomethylglycine triesters” (Monsanto Company, priority 1981, dated 1983)

What was measured:
Experiment in all cases: Post-emergence herbicidal activity, greenhouse
Assay type in all cases: in vivo
Details in all cases: Table I, 4 WAT
Morningglory = tested on: Morningglory
Description: (§1) A good grade of top soil is placed in aluminum pans having holes in the bottom and compacted to a depth of 0.95 to 1.27 cm. from the top of the pan. A predetermined number of seeds of each of several dicotyledonous and monocotyledonous annual plant species and/or vegetative propagules for the perennial plant species are placed on the soil and pressed into the soil surface. The seeds and/or vegetative propagules are covered with soil and leveled. The pans are then placed on a sand bench in the greenhouse and watered from below as needed. After the plants reach the desired age (two to three weeks), each pan except for the control pans is removed individually to a spraying chamber and sprayed by means of an atomizer operating at a positive air pressure of approximately 1.46 kg/cm^2 absolute. The atomizer contains 6 ml. of a solution or suspension of the chemical. In that 6 ml., is an amount of a cyclohexanone emulsifying agent mixture to give a spray solution or suspension which contains about 0.4% by weight of the emulsifier. The spray solution or suspension contains a sufficient amount of the candidate chemical in order to give application rates corresponding to those set forth in the tables. The spray solution is prepared by taking an aliquot of a 1.0% by weight stock solution or suspension of the candidate chemical in an organic solvent such as acetone or tetrahydrofuran or in water. The emulsifying agent employed is a mixture comprising 35 weight percent butylamine dodecylbenzene sulfonate and 65 weight percent of a tall oil ethylene oxide condensate having about 11 moles of ethylene oxide per mole of tall oil. The pans are returned to the greenhouse and watered as before and the injury to the plants as compared to the control is observed at approximately two and four weeks as indicated in the tables under WAT and the results recorded. In some instances, the two-week observations are omitted.
(§2) The post-emergence herbicidal activity index used in Table I is as follows:
(§3) The plant species utilized in these tests are identified by letter in accordance with the following legend: […]

Yellow Nutsedge = tested on: Yellow Nutsedge
Description: as §1, §2, §3

Downy Brome = tested on: Downy Brome
Description: as §1, §2, §3

Barnyardgrass = tested on: Barnyardgrass
Description: as §1, §2, §3

Lambsquarters = tested on: Lambsquarters
Description: as §1, §2, §3

Cocklebur = tested on: Cocklebur
Description: as §1, §2, §3

Velvetleaf = tested on: Velvetleaf
Description: as §1, §2, §3

Johnsongrass = tested on: Johnsongrass
Description: as §1, §2, §3

Quackgrass = tested on: Quackgrass
Description: as §1, §2, §3

Measured: post-emergence herbicidal activity index

CCOC(=O)CN(CP(=O)(Oc1ccc(Cl)c(C)c1)Oc1ccc(Cl)c(C)c1)SSc1ccc(OC)cc1 [VII]
3 (75-99% control): Barnyardgrass; 5.6 kg/h | Barnyardgrass; 11.2 kg/h | Johnsongrass; 5.6 kg/h
1 (25-49% control): Morningglory; 5.6 kg/h | Morningglory; 11.2 kg/h | Yellow Nutsedge; 11.2 kg/h | Cocklebur; 5.6 kg/h | Velvetleaf; 5.6 kg/h | Velvetleaf; 11.2 kg/h | Quackgrass; 5.6 kg/h | Quackgrass; 11.2 kg/h
2 (50-74% control): Yellow Nutsedge; 5.6 kg/h | Downy Brome; 5.6 kg/h | Downy Brome; 11.2 kg/h | Lambsquarters; 5.6 kg/h | Lambsquarters; 11.2 kg/h | Cocklebur; 11.2 kg/h | Johnsongrass; 11.2 kg/h
